pEC50: −log10 of the molar value.
Experiments:
[1] = tested on: multiple myeloma MM.1S cells; test: Analysis of mechanism of cell death in MM.1S cells; assay type: cell-based, human; details: in contrast to HeLa cells (non-apoptotic mechanism)
human cancer cell lines = test: Viability of human cancer cell lines (overall statements); assay type: cell-based; details: 96-hour exposure; sensitivity varied greatly; no effect of p53 status
Description: (§1) Cultures of HeLa cells were exposed for 96 hours to different concentrations of IHSF 001, 058 and 115, and viability was assessed using an Alamar Blue assay. It is noted that this standard assay examines attached cells only. This subject will be discussed in more detail below. […] The relative cytotoxicity of the compounds appears to parallel their respective activities as inhibitors of HSF1 function (inhibition of RLuc expression in Z74 cells). We next examined the viability of different human cancer cell lines subsequent to a 96-hour exposure to compound 115 (Table 3). HSF1 was reported as being required for optimal p21 expression and for p53-mediated cell cycle arrest in response to genotoxins. Logan, I. R. et al. (2009) Nucleic Acids Res. 37: 2962-2971. […] Cell lines of different p53 status were included in the experiments in order to find out whether sensitivity to IHSF 115 was related to p53 status. […] No effect of p53 status could be discovered. It is noted that a number of additional HSF inhibitors of the present disclosure were tested and found to effectively reduce the viability of human cancer cells.

[2] = tested on: KD 13 (HeLa-derived, HSF1 siRNA); test: Alamar Blue assay of HSF1-deficient KD 13 line versus KD control cells; assay type: cell-based, human; details: 96 hours exposure, different concentrations
Description: FIG. 7. (A) Upper panel: HSF1 levels in cultures of KD control and KD13 cells as assayed by WB. Lower panel: number of alive KD control and KD13 cells after 1-4 days of culture as determined by Trypan Blue dye exclusion. […] Cell viability was assayed by Alamar Blue assay.
The most severely HSF1-deficient lines grew slowly. FIG. 7 reports on the properties of one such line, KD 13, which was compared to control lentivirus-transduced cells (KD control). The WB in FIG. 7A (upper panel) confirms that the KD 13 line is essentially devoid of HSF1. The lower panel compares growth of the cell line with that of the control cells (the graph showing numbers of Trypan Blue-excluding (live) cells after 1-4 days of culture). We conclude that the KD 13 line has partially overcome its HSF1 dependency.

BT-474 = test: Alamar Blue viability assay; assay type: cell-based; details: Homo sapiens, Breast, P53 Mut, 96-hour exposure
Description: as §1

NCI-H3122 = test: Alamar Blue viability assay; assay type: cell-based; details: Homo sapiens, Lung, P53 Wt, 96-hour exposure
Description: as §1

THP-1 = test: Alamar Blue viability assay; assay type: cell-based; details: Homo sapiens, Acute monocytic leukemia, P53 Mut, 96-hour exposure
Description: as §1

PC-3 = test: Alamar Blue viability assay; assay type: cell-based; details: Homo sapiens, Prostate, P53 Null, 96-hour exposure
Description: as §1

SK-N-SH = test: Alamar Blue viability assay; assay type: cell-based; details: Homo sapiens, Neuroblastoma, P53 Wt, 96-hour exposure
Description: as §1

MCF-7 = test: Alamar Blue viability assay; assay type: cell-based; details: Homo sapiens, MCF7, Breast, P53 Wt, 96-hour exposure
Description: as §1

RPMI 8266 = test: Alamar Blue viability assay; assay type: cell-based; details: Homo sapiens, RPMI8266, Multiple myeloma, P53 Mut, 96-hour exposure
Description: as §1

Saos-2 = test: Alamar Blue viability assay; assay type: cell-based; details: Homo sapiens, Osteosarcoma, P53 Null, 96-hour exposure
Description: as §1

A673 = test: Alamar Blue viability assay; assay type: cell-based; details: Homo sapiens, Ewing’s sarcoma, P53 Mut, 96-hour exposure
Description: as §1

MM.1R = test: Alamar Blue viability assay; assay type: cell-based; details: Homo sapiens, Multiple myeloma, P53 Wt, 96-hour exposure
Description: as §1

NCI-H460 = test: Alamar Blue viability assay; assay type: cell-based; details: Homo sapiens, Lung, P53 Wt, 96-hour exposure
Description: as §1

sNF02.2 = test: Alamar Blue viability assay; assay type: cell-based; details: Homo sapiens, Malignant peripheral nerve sheath, P53 Wt, 96-hour exposure
Description: as §1

NCI-H1975 = test: Alamar Blue viability assay; assay type: cell-based; details: Homo sapiens, Lung, P53 Wt, 96-hour exposure
Description: as §1

HCC1143 = test: Alamar Blue viability assay; assay type: cell-based; details: Homo sapiens, Breast, P53 Mut, 96-hour exposure
Description: as §1

SK-OV-3 = test: Alamar Blue viability assay; assay type: cell-based; details: Homo sapiens, Ovarian carcinoma, P53 Mut, 96-hour exposure
Description: as §1

PEA1 = test: Alamar Blue viability assay; assay type: cell-based; details: Homo sapiens, Ovarian carcinoma, P53 Mut, 96-hour exposure
Description: as §1

sNF96.2 = test: Alamar Blue viability assay; assay type: cell-based; details: Homo sapiens, Malignant peripheral nerve sheath, P53 Wt, 96-hour exposure
Description: as §1

HepG2 = test: Alamar Blue viability assay; assay type: cell-based; details: Homo sapiens, Hepatocellular, P53 Wt, 96-hour exposure
Description: as §1

IM9 = test: Alamar Blue viability assay; assay type: cell-based; details: Homo sapiens, IM-9, Multiple myeloma, P53 Wt, 96-hour exposure
Description: as §1

MDA-MB-453 = test: Alamar Blue viability assay; assay type: cell-based; details: Homo sapiens, Breast, P53 Mut, 96-hour exposure
Description: as §1

MNNG/HOS = test: Alamar Blue viability assay; assay type: cell-based; details: Homo sapiens, Osteosarcoma, P53 Mut, 96-hour exposure
Description: as §1

MG-63 = test: Alamar Blue viability assay; assay type: cell-based; details: Homo sapiens, Osteosarcoma, P53 Mut, 96-hour exposure
Description: as §1

CAMA-1 = test: Alamar Blue viability assay; assay type: cell-based; details: Homo sapiens, Breast, P53 Mut, 96-hour exposure
Description: as §1

BT-20 = test: Alamar Blue viability assay; assay type: cell-based; details: Homo sapiens, Breast, P53 Mut, 96-hour exposure
Description: as §1

T47D = test: Alamar Blue viability assay; assay type: cell-based; details: Homo sapiens, Breast, P53 Mut, 96-hour exposure
Description: as §1

## CN(C(=O)/C=C/C1=NCCCO1)c1ncc(-c2cccnc2)s1 [IHSF 115, (E)-3-(5,6-Dihydro-4H-[1,3]oxazin-2-yl)-N-methyl-N-(5-pyridin-3-yl-thiazol-2-yl)-acrylamide]
[1]
  mechanism of cell death of MM.1S cells: prominent apoptotic component
Human cancer cell lines
  viability of human cancer cell lines: reduced viability in all cell lines tested
[2]
  resistance of KD 13 line versus control lentivirus-transduced cells to killing: more resistant to killing
BT-474
  pEC50: 5.28
NCI-H3122
  pEC50: 4.96
THP-1
  pEC50: 5.16
PC-3
  pEC50: 5.40
SK-N-SH
  pEC50: 5.40
MCF-7
  pEC50: 5.28
RPMI 8266
  pEC50: 5.44
Saos-2
  pEC50: 5.10
A673
  pEC50: 5.72
MM.1R
  pEC50: 5.77
NCI-H460
  pEC50: 5.03
sNF02.2
  pEC50: 5.08
NCI-H1975
  pEC50: 5.29
HCC1143
  pEC50: 5.32
SK-OV-3
  pEC50: 4.82
PEA1
  pEC50: 5.39
sNF96.2
  pEC50: 5.38
HepG2
  pEC50: 5.28
IM9
  pEC50: 5.64
MDA-MB-453
  pEC50: 5.38
MNNG/HOS
  pEC50: 5.04
MG-63
  pEC50: 5.34
CAMA-1
  pEC50: 5.46
BT-20
  pEC50: 5.09
T47D
  pEC50: 5.36

— patent publication US11597708B2, “Inhibitors of heat shock factors and uses thereof” (HSF Pharmaceuticals SA, priority 2016, dated 2023)
